GI50 and TGI data for eight compounds are collected here from PubChem BioAssay (NCI).

Holding throughout (experiment): NCI tumour cell line growth inhibition, 48 h
Assay [1] has as its system NCI-H522 lung.
Assay [2] concerns UO-31 renal.
Assay [3] deals with OVCAR-5 ovarian.
For assay [4], the system named is SK-OV-3 ovarian.
Assay [5] deals with HCT-116 colon.
Assay [6] relates to LOX IMVI melanoma.
Assay [7] deals with SK-MEL-2 melanoma.
Assay [8] deals with HT29 colon.
For assay [9], the system named is A498 renal.
The subject of assay [10] is CCRF-CEM leukemia.

The structures appear in SMILES notation.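 Compound exposure: 48 hours, 5 concentrations, 96-well plates. At the GI50, growth is halved. TGI marks complete inhibition of growth.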

In the case of `O=C(/C=C1\C(=O)N(Cc2ccc([N+](=O)[O-])cc2)c2ccccc21)c1ccc(OCCN2CCCCC2)cc1`, the GI50 in [1] was 0.614 µM; in assay [2], 1.4 µM; in [3], 1.33 µM; in assay [4], 2.78 µM; in assay [5], 0.366 µM; in assay [6], 1.4 µM. The GI50 in assay [7] is 1.66 µM; in [8], 1.4 µM; in assay [9] it was 4.09 µM; in assay [10], 0.323 µM. In addition, the TGI in assay [1] came out at 1.99 µM; in assay [2] it was 2.7 µM; in assay [3] it was 3.09 µM; in assay [4], 11.7 µM; in [5], 1.43 µM; in [6], 2.78 µM. The TGI was 3.14 µM in assay [7], 2.88 µM in assay [8], 18 µM in assay [9] and 2.35 µM in assay [10].
In the case of `O=C(/C=C/C12c3ccccc3C(c3ccccc31)C1C(=O)N(c3ccccc3)C(=O)C12)c1ccc(Cl)cc1` (stereo not given), the GI50 in [1] is 1.74 µM; in [2] it was 1.12 µM; in [3] it was 1.6 µM; in assay [4], 5.28 µM; in assay [5], 0.537 µM; in [6], 1.65 µM. Further, the GI50 in assay [7] was 2.48 µM; in [8], 1.86 µM; in [9], 1.16 µM; in [10], 0.566 µM. In addition, the TGI in assay [1] is 3.58 µM; in assay [2], 2.47 µM; in assay [3] it was 4.66 µM; in assay [4], above 100 µM; in assay [5], 2.16 µM; in assay [6], 3.25 µM. In addition, the TGI is 5.86 µM in assay [7], 7.88 µM in [8], 2.44 µM in [9] and above 100 µM in [10].
Take `CCOC(=O)c1cc(/C=C/C(C)=C/C(=O)OC)oc1-c1ccccc1`: the TGI in [1], in assay [2], in assay [3], in assay [4], in assay [5] and in [6] was above 100 µM each time. Further, the TGI in [7], in assay [8], in [9] and in assay [10] was above 100 µM each time.
Consider `Cc1c(C)c2c(c(C)c1NC(=O)/C=C\C(=O)O)CCC(C)(CCCC(C)CCCC(C)CCCC(C)C)O2` (stereo not given), for which the GI50 in [1] was 2.23 µM; in [2], 1.27 µM; in assay [3] it was 1.72 µM; in assay [4], 1.73 µM; in assay [5] it was 1.28 µM; in [6] it was 1.87 µM. Further, the GI50 in [7] is 1.86 µM; in assay [8], 2.61 µM; in assay [9] it was 1.38 µM; in assay [10], 1.79 µM. Also, the TGI in assay [1] is 4.94 µM; in [2] it was 2.55 µM; in assay [3], 4.05 µM; in assay [4], 3.25 µM; in [5], 2.54 µM; in [6] it was 3.69 µM. The TGI worked out at 3.68 µM in [7], 8.24 µM in assay [8], 2.7 µM in assay [9] and 6.11 µM in [10].
Take `Nc1ncnc2c1ncn2C1OC(CSC(F)(F)F)C(O)C1O` (stereo not given): the TGI in [1], in assay [2], in assay [3], in assay [4], in assay [5] and in [6] was above 100 µM throughout. In addition, the TGI in [7], in assay [8], in assay [9] and in [10] was above 100 µM throughout.
As to `CCOC(=O)C1=C(C)NC2SC(=O)/C(=C\c3ccccc3Cl)N2C1c1ccccc1` (stereo not given), the GI50 in assay [1], in assay [2], in assay [3], in [4], in assay [5] and in assay [6] was above 100 µM throughout. Besides, the GI50 in [7], in assay [8], in [9] and in assay [10] was above 100 µM in each case. The TGI in assay [1], in assay [2], in assay [3], in assay [4], in assay [5] and in assay [6] was above 100 µM each time. Besides, the TGI in assay [7], in assay [8], in assay [9] and in assay [10] was above 100 µM each time.
As for `O=C1c2cccc3cc([N+](=O)[O-])cc(c23)C(=O)N1NC1=NCCN1`, the TGI in assay [1], in assay [2], in assay [3], in assay [4], in assay [5] and in [6] was above 100 µM throughout. For the same compound, the TGI in assay [7], in [8], in assay [9] and in assay [10] was above 100 µM in each case.
For the compound `NC1=NC(c2ccc(Cl)cc2)N(c2ccc(S(=O)(=O)Nc3ncccn3)cc2)C(N)=N1` (stereo not given), the TGI in [1], in assay [2], in [3], in assay [4], in assay [5] and in assay [6] was above 100 µM in each case. For the same compound, the TGI in [7], in assay [8], in assay [9] and in [10] was above 100 µM throughout.
